pIC50: −log10 of the molar value. One block for each molecule: values may come before it.
Test system: 377384-186-R-J1-PDC complex spheroid viability
Experiment: Anticancer human tumor 377384-186-R-J1-PDC patient-derived pancreatic carcinoma cell line growth inhibition [RAS]
Settings: for pIC50: curve of first compound; for viability, T/C: stronger effect = lower value
In short: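 Tumour cells grown as complex spheroids with HUVEC endothelial cells and mesenchymal stem cells, treated with RAS pathway inhibitor combinations. Each agent spans half-log steps from near clinical Cmax, or 10 microM where Cmax is unknown.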

[1] = second compound 0.000949 µM, first compound 0.0316 µM
[2] = second compound 0.000949 µM, first compound 0.1 µM
[3] = second compound 0.000949 µM, first compound 0.316 µM
[4] = second compound 0.000949 µM, first compound 1 µM
[5] = second compound 0.000949 µM, first compound 3.16 µM
[6] = second compound 0.000949 µM, first compound 10 µM
[7] = second compound 0.003 µM, first compound 0.0316 µM
[8] = second compound 0.003 µM, first compound 0.1 µM
[9] = second compound 0.003 µM, first compound 0.316 µM
[10] = second compound 0.003 µM, first compound 1 µM
[11] = second compound 0.003 µM, first compound 3.16 µM
[12] = second compound 0.003 µM, first compound 10 µM
[13] = second compound 0.00949 µM, first compound 0.0316 µM
[14] = second compound 0.00949 µM, first compound 0.1 µM
[15] = second compound 0.00949 µM, first compound 0.316 µM
[16] = second compound 0.00949 µM, first compound 1 µM
[17] = second compound 0.00949 µM, first compound 3.16 µM
[18] = second compound 0.00949 µM, first compound 10 µM
[19] = second compound 0.03 µM, first compound 0.0316 µM
[20] = second compound 0.03 µM, first compound 0.1 µM
[21] = second compound 0.03 µM, first compound 0.316 µM
[22] = second compound 0.03 µM, first compound 1 µM
[23] = second compound 0.03 µM, first compound 3.16 µM
[24] = second compound 0.03 µM, first compound 10 µM
[25] = second compound 0.0949 µM, first compound 0.0316 µM
[26] = second compound 0.0949 µM, first compound 0.1 µM
[27] = second compound 0.0949 µM, first compound 0.316 µM
[28] = second compound 0.0949 µM, first compound 1 µM
[29] = second compound 0.0949 µM, first compound 3.16 µM
[30] = second compound 0.0949 µM, first compound 10 µM
[31] = second compound 0.3 µM, first compound 0.0316 µM
[32] = second compound 0.3 µM, first compound 0.1 µM
[33] = second compound 0.3 µM, first compound 0.316 µM
[34] = second compound 0.3 µM, first compound 1 µM
[35] = second compound 0.3 µM, first compound 3.16 µM
[36] = second compound 0.3 µM, first compound 10 µM
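Further: spheroids exposed to compounds for seven days before readout.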

pIC50 (second compound 0.000949 µM): 7.04 | pIC50 (second compound 0.003 µM): 6.98 | pIC50 (second compound 0.00949 µM): 6.91 | pIC50 (second compound 0.03 µM): 6.95 | pIC50 (second compound 0.0949 µM): 7.11 | pIC50 (second compound 0.3 µM): 7.20
SMILES: CC1(O)CCCC1n1c(=O)c(C(F)F)cc2cnc(NC3CCN(S(C)(=O)=O)CC3)nc21 (centres undefined) + CCn1c(-c2cccnc2C(C)OC)c2c3cc(ccc31)N1CCOC(CC(NC(=O)C(C(C)C)N(C)C(=O)C3(F)CCN(C(=O)C#CC(C)(C)N(C)C)CC3)C(=O)N3CCCC(N3)C(=O)OCC(C)(C)C2)C1
viability, T/C [1]: 79.6% | viability, T/C [2]: 46.6% | viability, T/C [3]: 28.9% | viability, T/C [4]: 28.6% | viability, T/C [5]: 35.1% | viability, T/C [6]: 9.26% | viability, T/C [7]: 76.8% | viability, T/C [8]: 52.7% | viability, T/C [9]: 28.8% | viability, T/C [10]: 26.6% | viability, T/C [11]: 34.8% | viability, T/C [12]: 8.79% | viability, T/C [13]: 84.6% | viability, T/C [14]: 55.6% | viability, T/C [15]: 27% | viability, T/C [16]: 29.7% | viability, T/C [17]: 36% | viability, T/C [18]: 7.91% | viability, T/C [19]: 67.4% | viability, T/C [20]: 52.6% | viability, T/C [21]: 24.9% | viability, T/C [22]: 21.5% | viability, T/C [23]: 34.7% | viability, T/C [24]: 7.53% | viability, T/C [25]: 71.3% | viability, T/C [26]: 46.5% | viability, T/C [27]: 23.9% | viability, T/C [28]: 22.2% | viability, T/C [29]: 33.4% | viability, T/C [30]: 6.19% | viability, T/C [31]: 68% | viability, T/C [32]: 37.7% | viability, T/C [33]: 18.6% | viability, T/C [34]: 22.7% | viability, T/C [35]: 34.7% | viability, T/C [36]: 5.35%

pIC50 (second compound 0.000949 µM): 5.76 | pIC50 (second compound 0.003 µM): 5.80 | pIC50 (second compound 0.00949 µM): 5.80 | pIC50 (second compound 0.03 µM): 5.81 | pIC50 (second compound 0.0949 µM): 5.91 | pIC50 (second compound 0.3 µM): 6.07
SMILES: CCC(CC)c1cc(NC2CCC(N)C2)n2nccc2n1 (centres undefined) + CCn1c(-c2cccnc2C(C)OC)c2c3cc(ccc31)N1CCOC(CC(NC(=O)C(C(C)C)N(C)C(=O)C3(F)CCN(C(=O)C#CC(C)(C)N(C)C)CC3)C(=O)N3CCCC(N3)C(=O)OCC(C)(C)C2)C1
viability, T/C [1]: 101% | viability, T/C [2]: 96.9% | viability, T/C [3]: 115% | viability, T/C [4]: 91.9% | viability, T/C [5]: 2.57% | viability, T/C [6]: 3.88% | viability, T/C [7]: 109% | viability, T/C [8]: 115% | viability, T/C [9]: 108% | viability, T/C [10]: 81% | viability, T/C [11]: 2.93% | viability, T/C [12]: 3.96% | viability, T/C [13]: 90.4% | viability, T/C [14]: 114% | viability, T/C [15]: 120% | viability, T/C [16]: 82.3% | viability, T/C [17]: 3.02% | viability, T/C [18]: 4.29% | viability, T/C [19]: 104% | viability, T/C [20]: 99% | viability, T/C [21]: 107% | viability, T/C [22]: 77.6% | viability, T/C [23]: 3.09% | viability, T/C [24]: 4.72% | viability, T/C [25]: 90.8% | viability, T/C [26]: 91.5% | viability, T/C [27]: 95.8% | viability, T/C [28]: 60.1% | viability, T/C [29]: 3.31% | viability, T/C [30]: 4.2% | viability, T/C [31]: 94% | viability, T/C [32]: 86.1% | viability, T/C [33]: 86.3% | viability, T/C [34]: 44.2% | viability, T/C [35]: 3.73% | viability, T/C [36]: 3.93%

From PubChem BioAssay AID2060903 (Molecular Pharmacology Branch, DTP, NCI, 2025)
